Laboratory results published in ChEMBL document CHEMBL1201862, “PubChem BioAssay data set” (2004).
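Five concentrations, 48 hours, 96-well plates. GI50 marks 50% less growth.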 Active and inactive are the calls of the source. Cut-off read from the data, not from the text of the source: active = GI50 up to about 1.1 µM and inactive = higher.

Key:
Assay in all cases: inhibition of tumour cell growth, NCI panel, 48 h
786-0 = system: 786-0
A549 = system: A549
ACHN = system: ACHN
BT-549 = system: BT-549
CAKI-1 = system: CAKI-1
CCRF-CEM = system: CCRF-CEM
COLO 205 = system: COLO 205
DU-145 = system: DU-145
EKVX = system: EKVX
HCC 2998 = system: HCC 2998
HCT-116 = system: HCT-116
HCT-15 = system: HCT-15
HL-60 = system: HL-60
HOP-62 = system: HOP-62
HOP-92 = system: HOP-92
HT-29 = system: HT-29
Hs-578T = system: Hs-578T
IGROV-1 = system: IGROV-1
K562 = system: K562
KM12 = system: KM12
LOX IMVI = system: LOX IMVI
M14 = system: M14
MCF7 = system: MCF7
MDA-MB-231 = system: MDA-MB-231
MDA-MB-435 = system: MDA-MB-435
MDA-N = system: MDA-N
MOLT-4 = system: MOLT-4
Malme-3M = system: Malme-3M
NCI-H226 = system: NCI-H226
NCI-H23 = system: NCI-H23
NCI-H460 = system: NCI-H460
NCI-H522 = system: NCI-H522
NCI/ADR-RES = system: NCI/ADR-RES
OVCAR-3 = system: OVCAR-3
OVCAR-4 = system: OVCAR-4
OVCAR-5 = system: OVCAR-5
OVCAR-8 = system: OVCAR-8
PC-3 = system: PC-3
RPMI-8226 = system: RPMI-8226
RXF 393 = system: RXF 393
SF-268 = system: SF-268
SF-295 = system: SF-295
SF-539 = system: SF-539
SK-MEL-5 = system: SK-MEL-5
SK-OV-3 = system: SK-OV-3
SN12C = system: SN12C
SNB-19 = system: SNB-19
SR = system: SR
SW-620 = system: SW-620
T47D = system: T47D
TK-10 = system: TK-10
U-251 = system: U-251
UACC-257 = system: UACC-257
UACC-62 = system: UACC-62
UO-31 = system: UO-31
A498 = system: A498
SK-MEL-28 = system: SK-MEL-28
SK-MEL-2 = system: SK-MEL-2
SNB-75 = system: SNB-75

Measured: GI50

NNC(=O)c1cc([N+](=O)[O-])ccc1NC(=O)C12CC3CC(CC(C3)C1)C2
inactive: 786-0 11.7 µM | A549 17.8 µM | ACHN 10 µM | BT-549 26.6 µM | CAKI-1 5.7 µM | CCRF-CEM 2.27 µM | COLO 205 6.04 µM | DU-145 20 µM | EKVX 7.05 µM | HCC 2998 10.5 µM | HCT-116 7.74 µM | HL-60 3.09 µM | HOP-62 16.3 µM | HOP-92 12.9 µM | HT-29 25.8 µM | Hs-578T 5.66 µM | IGROV-1 1.9 µM | K562 7.48 µM | KM12 20.1 µM | LOX IMVI 2.93 µM | M14 13 µM | MCF7 23.1 µM | MDA-MB-231 5.01 µM | MDA-MB-435 14.3 µM | MDA-N 21 µM | MOLT-4 3.32 µM | Malme-3M 16.5 µM | NCI-H226 4.62 µM | NCI-H23 19.5 µM | NCI-H460 18.1 µM | NCI-H522 3 µM | NCI/ADR-RES 15.9 µM | OVCAR-3 3.15 µM | OVCAR-4 2.62 µM | OVCAR-5 13.4 µM | OVCAR-8 14.9 µM | PC-3 13 µM | RPMI-8226 12.2 µM | RXF 393 7.98 µM | SF-268 3.82 µM | SF-295 14 µM | SF-539 13.5 µM | SK-MEL-5 19.2 µM | SK-OV-3 2.7 µM | SN12C 8.63 µM | SNB-19 2.98 µM | SR 3.43 µM | SW-620 7.74 µM | T47D 10 µM | TK-10 12.2 µM | U-251 6.92 µM | UACC-257 15.2 µM | UACC-62 10 µM | UO-31 7.98 µM
0.635 µM: HCT-15

c1ccc2sc(SCCSc3nc4ccccc4s3)nc2c1
inactive: 786-0 > 100 µM | A498 > 100 µM | A549 > 100 µM | ACHN > 100 µM | BT-549 > 100 µM | CAKI-1 > 100 µM | DU-145 > 100 µM | EKVX > 100 µM | HCC 2998 20.3 µM | HCT-116 > 100 µM | HL-60 65.8 µM | HOP-62 > 100 µM | HOP-92 > 100 µM | HT-29 > 100 µM | Hs-578T > 100 µM | IGROV-1 > 100 µM | K562 > 100 µM | KM12 52.4 µM | LOX IMVI > 100 µM | M14 > 100 µM | MCF7 > 100 µM | MDA-MB-231 > 100 µM | MDA-MB-435 > 100 µM | MDA-N > 100 µM | Malme-3M > 100 µM | NCI-H23 > 100 µM | NCI-H460 > 100 µM | NCI-H522 > 100 µM | NCI/ADR-RES > 100 µM | OVCAR-3 > 100 µM | OVCAR-4 52.1 µM | OVCAR-5 > 100 µM | OVCAR-8 > 100 µM | PC-3 > 100 µM | RPMI-8226 > 100 µM | RXF 393 > 100 µM | SF-268 > 100 µM | SF-295 > 100 µM | SK-MEL-28 > 100 µM | SK-MEL-2 > 100 µM | SK-OV-3 > 100 µM | SN12C > 100 µM | SNB-19 > 100 µM | SNB-75 74.3 µM | SR > 100 µM | SW-620 > 100 µM | T47D > 100 µM | TK-10 > 100 µM | U-251 > 100 µM | UACC-257 > 100 µM | UACC-62 > 100 µM | UO-31 > 100 µM
> 100 µM: HCT-15

c1ccc(-c2nc3ccccc3n3c(CN4CCCCC4)nnc23)cc1
> 100 µM: HCT-15
inactive: 786-0 37.3 µM | A498 60 µM | A549 > 100 µM | ACHN 28.7 µM | BT-549 80.2 µM | CAKI-1 > 100 µM | CCRF-CEM > 100 µM | COLO 205 > 100 µM | DU-145 > 100 µM | EKVX 93.5 µM | HCC 2998 > 100 µM | HCT-116 > 100 µM | HOP-62 28.5 µM | HOP-92 31.2 µM | HT-29 > 100 µM | Hs-578T 69.2 µM | IGROV-1 47.9 µM | K562 > 100 µM | LOX IMVI > 100 µM | M14 > 100 µM | MCF7 > 100 µM | MDA-MB-231 60 µM | MDA-MB-435 > 100 µM | MDA-N > 100 µM | MOLT-4 > 100 µM | Malme-3M > 100 µM | NCI-H226 > 100 µM | NCI-H460 > 100 µM | NCI-H522 > 100 µM | NCI/ADR-RES > 100 µM | OVCAR-3 > 100 µM | OVCAR-4 > 100 µM | OVCAR-5 > 100 µM | OVCAR-8 99.3 µM | PC-3 > 100 µM | RPMI-8226 > 100 µM | RXF 393 35.7 µM | SF-268 49.5 µM | SF-295 49.4 µM | SF-539 51.3 µM | SK-MEL-28 > 100 µM | SK-MEL-2 35.1 µM | SK-MEL-5 > 100 µM | SK-OV-3 47.3 µM | SN12C > 100 µM | SNB-19 36.2 µM | SNB-75 19.2 µM | SR > 100 µM | SW-620 > 100 µM | T47D 54.5 µM | TK-10 35.2 µM | U-251 47 µM | UACC-257 > 100 µM | UACC-62 > 100 µM

O=C(Nc1ccc(Cl)c(Cl)c1)C(=O)C(C1OC(=O)c2ccccc21)[N+](=O)[O-] (stereo not given)
inactive: 786-0 > 100 µM | A498 > 100 µM | A549 > 100 µM | ACHN > 100 µM | BT-549 > 100 µM | CAKI-1 > 100 µM | CCRF-CEM > 100 µM | COLO 205 > 100 µM | DU-145 > 100 µM | EKVX > 100 µM | HCC 2998 > 100 µM | HCT-116 > 100 µM | HOP-62 > 100 µM | HOP-92 81.7 µM | HT-29 > 100 µM | Hs-578T > 100 µM | IGROV-1 > 100 µM | KM12 > 100 µM | LOX IMVI > 100 µM | M14 > 100 µM | MCF7 > 100 µM | MDA-MB-231 > 100 µM | MDA-MB-435 > 100 µM | MDA-N > 100 µM | MOLT-4 > 100 µM | Malme-3M > 100 µM | NCI-H226 > 100 µM | NCI-H23 > 100 µM | NCI-H460 > 100 µM | NCI-H522 > 100 µM | NCI/ADR-RES > 100 µM | OVCAR-3 > 100 µM | OVCAR-4 > 100 µM | OVCAR-5 > 100 µM | OVCAR-8 > 100 µM | PC-3 > 100 µM | RXF 393 95.1 µM | SF-268 > 100 µM | SF-295 > 100 µM | SF-539 > 100 µM | SK-MEL-28 > 100 µM | SK-MEL-2 > 100 µM | SK-MEL-5 > 100 µM | SK-OV-3 > 100 µM | SN12C > 100 µM | SNB-19 > 100 µM | SNB-75 > 100 µM | SR > 100 µM | SW-620 > 100 µM | T47D > 100 µM | TK-10 > 100 µM | U-251 > 100 µM | UACC-257 > 100 µM | UACC-62 > 100 µM | UO-31 > 100 µM
> 100 µM: HCT-15

Cc1cc2c(SCc3ccccc3Cl)nc(N)nc2nc1C
inactive: 786-0 > 100 µM | A498 > 100 µM | A549 > 100 µM | ACHN > 100 µM | BT-549 > 100 µM | CAKI-1 > 100 µM | CCRF-CEM > 100 µM | COLO 205 > 100 µM | DU-145 > 100 µM | EKVX > 100 µM | HCC 2998 > 100 µM | HCT-116 > 100 µM | HL-60 > 100 µM | HOP-62 > 100 µM | HOP-92 62.4 µM | HT-29 > 100 µM | Hs-578T 36.3 µM | IGROV-1 > 100 µM | KM12 > 100 µM | LOX IMVI > 100 µM | M14 > 100 µM | MCF7 > 100 µM | MDA-MB-231 > 100 µM | MDA-MB-435 > 100 µM | MDA-N > 100 µM | Malme-3M > 100 µM | NCI-H23 > 100 µM | NCI-H460 > 100 µM | NCI-H522 21.4 µM | NCI/ADR-RES > 100 µM | OVCAR-3 > 100 µM | OVCAR-4 > 100 µM | OVCAR-5 > 100 µM | OVCAR-8 > 100 µM | PC-3 > 100 µM | RPMI-8226 > 100 µM | RXF 393 > 100 µM | SF-268 65.5 µM | SF-295 97.5 µM | SF-539 > 100 µM | SK-MEL-28 > 100 µM | SK-MEL-2 > 100 µM | SK-MEL-5 > 100 µM | SK-OV-3 > 100 µM | SN12C > 100 µM | SNB-19 > 100 µM | SNB-75 > 100 µM | SR > 100 µM | SW-620 > 100 µM | T47D > 100 µM | TK-10 > 100 µM | U-251 > 100 µM | UACC-257 > 100 µM | UACC-62 > 100 µM | UO-31 1.79 µM
> 100 µM: HCT-15
